The assay concerns healthy participants. As to the kind of experiment: Phase 1 study: Rapid Visual Information Processing (RVPA). As to conditions: Treatment V6 Day 28 (remote). The format is in vivo, human. An excerpt: In some embodiments, the Rapid Visual Information Processing (RVP) test is utilized to evaluate the safety and efficacy of psilocybin. The RVP is a measure of sustained attention outputting measures of response accuracy, target sensitivity and reaction times. In this test, the study subject is required to monitor a stream of digits from 2 to 9 for specific sequences (e.g., 3-5-7) and to acknowledge detection of the sequence by touching the on-screen response button as quickly as possible after presentation of the third digit. Digits are presented pseudorandomly to create the possibility of ‘false alarm’ responses in which the first 2 digits of a sequence are not followed by a true target, e.g., when 3 is followed by a 5, but not then by a 7. In order to complete the task successfully study subjects must sustain attention to the white box in which the digits appear. Performance on this task is measured by the speed of response to the presentation of the final digit of a target, as well as the study subject's ability to detect specified sequences. […]
To assess the effects of psilocybin on cognitive processing, a clinical trial testing psilocybin in healthy participants was performed. […] Rapid visual information processing (RVP), a sensitive measure of sustained attention, was assessed twice prior to dosing (Day 0): during screening (Day −2) and at baseline (Day −1). […]

For the compound `CN(C)CCc1c[nH]c2cccc(OP(=O)(O)O)c12` [Psilocybin, psilocybin], the “RVPA difference of least squares mean compared to placebo group, LS mean Estimate” value by setting is: (10 mg single oral) 0.01096; (25 mg single oral) 0.01225.

(Values after patent publication US12377112B2, “Methods of treating neurocognitive disorders, chronic pain and reducing inflammation” (priority 2019, dated 2025).)
